Laboratory results as given in PMC5556071, “ATR inhibition facilitates targeting of leukemia dependence on convergent nucleotide biosynthetic pathways” (Nature Communications, 2017).
Values joined by “and” are separate entries in the source; they are usually repeats but may differ in a detail not shown here. Equal values may be shown once.

Test system: CEM cells
Experiment: Non-targeted LC-MS metabolite profiling: percent [13C6]glucose labeling and relative metabolite levels
Format: cell-based, human
Conditions: CEM cells, 12 h following release from G1 arrest, replicates #1-#6
Excerpt: To further investigate the functions of dCK and ATR at the G1/S transition in CEM cells, a non-targeted liquid chromatography mass spectrometry (LC-MS) assay was used to determine the utilization of labeled [^13C6]glucose and [^13C9,^15N3]deoxycytidine, the main substrates for de novo and salvage nucleotide biosynthesis, respectively. Of the 166 metabolites identified in CEM cells treated with VE-822 and/or dCKi, 105 metabolites found in all four treatment groups contained glucose-derived ^13C atoms. […] These metabolites included intermediates such as rUTP, rCTP and rCDP in the de novo dCTP biosynthesis (Fig. 1d). […] However, several deoxyribonucleotides, including dCTP, were below the limit of detection of the non-targeted LC-MS approach, raising the concern that the sensitivity of this assay is not sufficient to measure the contribution of the salvage pathway or the ratio of de novo and salvage biosynthesis to these pools. To address this problem, a newly developed targeted MS assay was developed (Fig. 1e and Supplementary Fig. 3). In this assay, samples containing either extracted dNTPs or hydrolyzed DNA from labeled cells are separated by LC for detection by a triple quadrupole mass spectrometer using multiple reaction monitoring (LC-MS/MS-MRM). The first (Q1) and third (Q3) quadrupoles function as mass filters, while the second (Q2) quadrupole serves as a collision chamber (Fig. 1e). For instance, to profile the biosynthetic composition of deoxycytidine (dC) derived from hydrolyzed DNA or dCTP, an intact, protonated dC ion is selected in Q1, followed by fragmentation of the glycosidic bond, which releases protonated cytosine in Q2, that is filtered in Q3 and detected to generate an ion chromatogram. The peak areas for the ion chromatograms of salvage [^13C9,^15N3]dC (red trace), de novo [^13C5]dC (black trace, from [^13C6]glucose) and unlabeled dC (gray trace) (Fig. 1e) are used to determine the relative contributions of the de novo and salvage routes both to dCTP pools and to DNA-incorporated dCTP.
Cells were transferred into RPMI-1640 without glucose and supplemented with 10% dialyzed FBS (Gibco) containing the following labeled substrates: precursors for de novo [U-^13C6]glucose (Sigma-Aldrich, 389374) at 11 mM; precursors for purine salvage [U-^13C10,^15N5]dA (Cambridge Isotopes, CIL 3896), [^15N5]dA (Cambridge Isotopes, NLM-3895) and [^15N5]dG (Cambridge Isotopes, NLM-3899) at 5 µM or as indicated; and precursors for pyrimidine salvage: [U-^13C9,^15N3]dC (Silantes, 124603602) and [U-^13C10,^15N2]dT (Cambridge Isotopes, CNLM-3902) at 5 µM and [^15N2]orotate (Cambridge Isotopes, NLM-1048) at indicated concentrations. The cells were incubated for 12 h or as indicated before sample collection and processing. […]
Non-targeted LC-MS metabolic assays. 1 x 10^6 cells were washed with ice-cold 150 mM ammonium acetate twice before adding 1 mL of ice-cold 80% methanol with 10 nM norvaline as an internal standard. After vigorous vortexing, samples were centrifuged at maximum speed, the aqueous layer was transferred to a glass vial and the metabolites were dried under vacuum. Metabolites were resuspended in 50 μL 70% acetonitrile (ACN) and 5 μL of this solution used for the mass spectrometer-based analysis. The analysis was performed on a Q Exactive (Thermo Scientific) in polarity-switching mode with positive voltage 4.0 kV and negative voltage 4.0 kV. The mass spectrometer was coupled to an UltiMate 3000RSLC (Thermo Scientific) UHPLC system. Mobile phase A was 5 mM ammonium acetate (NH4AcO), pH 9.9, B was acetonitrile and the separation achieved on a Luna […] NH2 100 A column (150 × 2.0 mm, Phenomenex). The flow was 200 μL/min, and the gradient ran from 15% A to 95% A in 18 min, followed by an isocratic step for 9 min and re-equilibration for 7 min. Metabolites were detected and quantified as area under the curve based on retention time and accurate mass (≤ 3 p.p.m.) using the TraceFinder 3.1 (Thermo Scientific). Relative amounts of […]

[1] = metabolite Asn (C00152), listed as D
[2] = metabolite Asp (C00049), listed as D
[3] = metabolite Carnitine (C00318), listed as D
[4] = metabolite G3P (KEGG C00118), listed as D
[5] = metabolite G6P-F6P (KEGG C00668), listed as D
[6] = metabolite GABA (KEGG C00334), listed as D
[7] = metabolite GDP (KEGG C00035), listed as D
[8] = metabolite GMP (KEGG C00144), listed as D
[9] = metabolite GSH (KEGG C00051), listed as D
[10] = metabolite GSSG (KEGG C00127), listed as D
[11] = metabolite GTP (KEGG C00044), listed as D
[12] = metabolite Glc (KEGG C00031), listed as D
[13] = metabolite GlcA (KEGG C00257), listed as D
[14] = metabolite GlcN-6P (KEGG C00352), listed as D
[15] = metabolite GlcNAc-6P (KEGG C00357), listed as D
[16] = metabolite Gln (KEGG C00064), listed as D
[17] = metabolite Glu (KEGG C00025), listed as D
[18] = metabolite GlucA (KEGG C00191), listed as D
[19] = metabolite Gly (KEGG C00037), listed as D
[20] = metabolite Glycerol (KEGG C00116), listed as D
[21] = metabolite Glycerol-2-P (KEGG C02979), listed as D
[22] = metabolite Glycerol-3-P (KEGG C00093), listed as D
[23] = metabolite His (KEGG C00135), listed as D
[24] = metabolite Homocysteine (KEGG C00155), listed as D
[25] = metabolite Hypoxanthine (KEGG C00262), listed as D
[26] = metabolite IMP (KEGG C00130), listed as D
[27] = metabolite Inosine (KEGG C00294), listed as D
[28] = metabolite a-KG (C00026), listed as D

In the case of `COc1ccc(-c2nc([C@@H](C)Sc3nc(N)cc(N)n3)c(C)s2)cc1OCCNS(C)(=O)=O` [dCKi], the “Relative level, Arg-Succ” value (metabolite Arg-Succ (C03406), listed as D) is reported as 1.1 and 1.2 and 1.4 and 0.428 and 0.458 and 0.6, the “Glucose labeling, Asn” value [1] is reported as 0.000993% and 2.77e-6% and 0.00524% and 0.00322% and 0.000183% and 2.2e-6% and the “Relative level, Asn” value [1] is reported as 1.1 and 1.3 (2×) and 0.8 and 0.7 and 0.85. For the same compound, the “Glucose labeling, Asp” value [2] was 24.08% and 25.99% and 25.39% and 25.08% and 25.80% and 25.92%, the “Relative level, Asp” value [2] was 0.9 (3×) and 1.1 and 0.5 and 0.6 and the “Glucose labeling, C” value (metabolite C (D07769), listed as D) was 0.44% (4×) and 0.15% and 0.31%. The “Relative level, C” value (metabolite C, listed as D) was 1.0 and 1.2 and 1.3 (2×) and 1.4 and 1.1, the “Glucose labeling, Carnitine” value [3] was 0.0041% and 0.00586% and 0.00566% and 0.00463% and 0.00467% and 0.00476% and the “Relative level, Carnitine” value [3] was 1.0 and 1.1 (2×) and 0.9 (2×) and 0.843. The “Glucose labeling of G3P” value [4] was 100.00% (3×) and 0.0369% (3×), the “Relative level of G3P” value [4] was 0.316 and 1.2 and 0.237 and 0.232 and the “Glucose labeling of G6P-F6P” value [5] was 57.18% and 69.30% and 72.35% and 21.95% and 56.24% and 64.94%. For the same compound, the “Relative level of G6P-F6P” value [5] was 0.6 and 0.7 and 1.0 and 0.163 and 0.339 and 0.4, the “Glucose labeling of GABA” value [6] was 0.0266% and 0.0568% and 0.0445% and 0.0322% and 0.0737% (2×) and the “Relative level of GABA” value [6] was 1.2 and 1.4 and 1.5 and 0.6 and 0.5 and 0.466. For the same compound, the “Glucose labeling of GDP” value [7] was 100.00% (2×) and 89.71% and 79.16% and 66.81% and 77.84%, the “Relative level of GDP” value [7] was 0.278 and 0.74 and 2.1 and 0.0943 and 0.533 and the “Glucose labeling of GMP” value [8] was 82.17% and 84.38% and 86.57% and 100.00% and 55.56% and 83.28%. The “Relative level of GMP” value [8] was 1.0 (2×) and 2.5 and 0.177 and 0.7, the “Glucose labeling of GSH” value [9] was 24.91% and 25.95% and 26.01% and 22.52% and 20.58% and 22.91% and the “Relative level of GSH” value [9] was 0.8 and 1.1 and 1.4 and 0.2 and 0.245 and 0.4. The “Glucose labeling of GSSG” value [10] was 44.73% and 47.85% and 45.35% and 40.72% and 38.47% and 41.79%, the “Relative level of GSSG” value [10] was 1.0 (2×) and 1.3 and 1.5 and 0.364 and 0.7 and the “Glucose labeling of GTP” value [11] was 88.53% and 93.02% and 84.10% and 100.00% and 95.85% and 82.17%. For the same compound, the “Relative level of GTP” value [11] was 0.137 and 0.6 and 1.3 and 0.0117 and 0.173 and 0.5, the “Glucose labeling of Glc” value [12] was 48.02% and 85.76% and 96.57% and 84.10% and 87.56% and 88.93% and the “Relative level of Glc” value [12] was 0.632 and 1.4 and 6.6 and 1.5 and 2.2 and 2.0. For the same compound, the “Glucose labeling of GlcA” value [13] was 38.48% and 42.08% and 42.11% and 29.34% and 32.69% and 34.11%, the “Relative level of GlcA” value [13] was 1.0 (2×) and 1.4 and 0.4 and 0.5 and 0.7 and the “Glucose labeling of GlcN” value (metabolite GlcN (KEGG C00329)) was 0.18%. The “Relative level of GlcN” value (metabolite GlcN (KEGG C00329), listed as D) was 1.4 and 0.948 and 0.9 (2×) and 1.0 and 0.8, the “Glucose labeling of GlcN-6P” value [14] was 6.04% and 8.63% and 7.74% and 8.56% and 9.86% and 9.69% and the “Relative level of GlcN-6P” value [14] was 0.8 and 0.847 and 1.1 and 0.743 and 0.7 and 1.0. For the same compound, the “Glucose labeling of GlcNAc-6P” value [15] was 12.90% and 10.87% and 25.06% and 34.14% and 41.68% and 27.99%, the “Relative level of GlcNAc-6P” value [15] was 0.636 and 0.8 and 1.2 and 0.212 and 0.6 (2×) and the “Glucose labeling of Gln” value [16] was 0.24% and 0.28% (4×) and 0.29%. For the same compound, the “Relative level of Gln” value [16] was 1.0 (2×) and 1.2 and 1.3 and 0.9 (2×), the “Glucose labeling of Glu” value [17] was 30.50% and 31.50% and 31.06% and 32.25% and 32.69% and 32.43% and the “Relative level of Glu” value [17] was 1.0 and 1.1 and 1.2 and 0.6 (2×) and 0.751. The “Glucose labeling of GlucA” value [18] was 0.47% and 1.38% and 1.95% and 0.76% and 1.61% and 0.18%, the “Relative level of GlucA” value [18] was 1.5 and 0.9 and 1.3 and 0.635 and 0.563 and 0.7 and the “Glucose labeling of Gly” value [19] was 5.78% and 6.19% and 5.38% and 3.11% and 3.32% and 3.83%. For the same compound, the “Relative level of Gly” value [19] was 1.1 and 1.3 and 1.2 (2×) and 0.9 and 0.854, the “Glucose labeling of Glycerol” value [20] was 0.0257% and 0.0369% (2×) and 0.03% and 0.00165% and 0.0279% and the “Relative level of Glycerol” value [20] was 0.8 (2×) and 0.7 and 1.5 and 2.6 and 2.4. For the same compound, the “Glucose labeling of Glycerol-2-P” value [21] was 12.49% and 5.31% and 20.27% and 20.32% and 0.0369% and 11.49%, the “Relative level of Glycerol-2-P” value [21] was 0.6 and 0.5 and 1.9 and 0.0423 and 0.16 and 0.346 and the “Glucose labeling of Glycerol-3-P” value [22] was 15.24% and 16.29% and 15.98% and 18.03% and 18.16% and 17.98%. The “Relative level of Glycerol-3-P” value [22] was 1.0 and 0.9 (2×) and 0.7 (2×) and 0.656, the “Glucose labeling of HS2O3” value (metabolite HS2O3 (KEGG C00320)) was 100.00% and the “Relative level of HS2O3” value (metabolite HS2O3 (KEGG C00320), listed as D) was 0.9 (2×) and 1.0 and 0.8 and 1.1 (2×). The “Glucose labeling of His” value [23] was 0.00% (5×) and 1.11e-14%, the “Relative level of His” value [23] was 1.2 and 1.3 and 1.5 and 0.76 and 0.6 and 0.7 and the “Glucose labeling of Homocysteine” value [24] was 0.022% and 0.0737% and 0.000309% and 0.01% and 0.000455% and 0.23%. For the same compound, the “Relative level of Homocysteine” value [24] was 2.7 and 0.5 and 1.5 (2×) and 3.4 and 0.855, the “Glucose labeling of Hypoxanthine” value [25] was 0.00941% and 0.12% (4×) and 0.06% and the “Relative level of Hypoxanthine” value [25] was 2.0 and 0.2 and 1.0 and 1.3 (2×) and 2.9. The “Glucose labeling of IMP” value [26] was 93.29% and 98.06% and 95.55% and 100.00% and 94.31% and 97.32%, the “Relative level of IMP” value [26] was 0.7 and 0.8 and 1.6 and 0.111 and 0.323 and 0.6 and the “Glucose labeling of Inosine” value [27] was 0.55% (4×) and 100.00% and 49.07%. The “Relative level of Inosine” value [27] was 0.5 and 0.547 and 0.3 and 0.568 and 0.6, the “Glucose labeling of Inositol” value (metabolite Inositol (KEGG C00137)) was 0.00% and the “Relative level of Inositol” value (metabolite Inositol (KEGG C00137), listed as D) was 1.0 (2×) and 1.6 (2×) and 1.1 (2×). The “Glucose labeling, a-KG” value [28] was 4.27% and 11.78% and 16.08% and 0.12% (2×) and 4.73% and the “Relative level, a-KG” value [28] was 0.7 and 1.1 and 2.3 and 0.0795 and 0.14 and 0.259.
